Measurements reported in patent US8952024B2, “Herbicidal pyrimidone derivatives” (E I du Pont de Nemours and Company, priority 2009, dated 2015).
Where two headings read alike, the source gives them in different places.

Legend:
Format in all cases: in vivo
[1] = test system: barnyardgrass (Echinochloa crus-galli); experiment: Test A pre-/postemergence plant response; conditions: Echinochloa crus-galli, 240 h, read-out: Plant response rating, Barnyardgrass; for pest or weed control at 125 g/ha: 125 g ai/ha; for pest or weed control at 500 g/ha: 500 g ai/ha, approx. ten days
Summary of the method: (§1)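 Visually rated 0–100 injury (100 = complete control) versus untreated plants, ~10 days in greenhouse. Application pre- (soil spray, loam/sand) and postemergence (2–10 cm, 1–2 leaf stage), same timepoint.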

[2] = test system: pigweed (Amaranthus retroflexus); experiment: Test A pre-/postemergence plant response; conditions: Amaranthus retroflexus, 240 h, read-out: Plant response rating, Pigweed; for pest or weed control at 125 g/ha: 125 g ai/ha; for pest or weed control at 500 g/ha: 500 g ai/ha, approx. ten days
Summary of the method: as §1

[3] = test system: yellow nutsedge (Cyperus esculentus); experiment: Test B pre-/postemergence plant response
Summary of the method: (§2)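 Test compounds, formulated in a non-phytotoxic solvent mixture with surfactant, are applied to the soil surface (loam and sand blend) right after seeding, or sprayed over plants at the 1- to 4-leaf stage grown in peat moss/vermiculite medium. After 13 to 15 days under glasshouse conditions, each species is scored visually from 0 (no effect) to 100 (complete control) against controls.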

[4] = test system: downy bromegrass (Bromus tectorum); experiment: Test B pre-/postemergence plant response
Summary of the method: as §2

[5] = test system: large crabgrass (Digitaria sanguinalis); experiment: Test B pre-/postemergence plant response
Summary of the method: as §2

[6] = test system: blackgrass (Alopecurus myosuroides); experiment: Test B pre-/postemergence plant response
Summary of the method: as §2

[7] = test system: morningglory (Ipomoea coccinea); experiment: Test B pre-/postemergence plant response
Summary of the method: as §2

[8] = test system: goosegrass (Eleusine indica); experiment: Test B pre-/postemergence plant response
Summary of the method: as §2

[9] = test system: wheat (Triticum aestivum); experiment: Test B pre-/postemergence plant response
Summary of the method: as §2

[10] = test system: Surinam grass (Brachiaria decumbens); experiment: Test B pre-/postemergence plant response
Summary of the method: as §2

[11] = test system: velvetleaf (Abutilon theophrasti); experiment: Test B pre-/postemergence plant response
Summary of the method: as §2

[12] = test system: Italian ryegrass (Lolium multiflorum); experiment: Test B pre-/postemergence plant response
Summary of the method: as §2

[13] = test system: woolly cupgrass (Eriochloa villosa); experiment: Test B pre-/postemergence plant response
Summary of the method: as §2

[14] = post-emergence, Postemergence, 0 to 100 scale where 0 is no effect and 100 is complete control
[15] = post-emergence, Postemergence, 0 to 100 scale, 0 = no effect, 100 = complete control
[16] = pre-emergence, Preemergence, 0 to 100 scale, 0 = no effect, 100 = complete control
[17] = pre-emergence, Preemergence, visual injury, 0 to 100 scale (0 no effect, 100 complete control)
[18] = 62 g ai/ha, postemergence, 0 is no effect, 100 is complete control, 13 to 15 days

## COCCn1c(-c2ccsc2)ncc(C(=O)C2=C(O)CCCC2=O)c1=O [Compound 97, 5-[(2-hydroxy-6-oxo-1-cyclohexen-1-yl)carbonyl]-3-(2-methoxyethyl)-2-(3-thienyl)-4(3H)-pyrimidinone]
[1]; [14]
  pest or weed control at 125 g/ha: 90%
[1]; [15]
  pest or weed control at 500 g/ha: 90%
[1]; [16]
  pest or weed control at 125 g/ha: 60%
[1]; [17]
  pest or weed control at 500 g/ha: 100%
[2]; [14]
  pest or weed control at 125 g/ha: 100%
[2]; [15]
  pest or weed control at 500 g/ha: 100%
[2]; [16]
  pest or weed control at 125 g/ha: 100%
[2]; [17]
  pest or weed control at 500 g/ha: 100%
[3]; [18]
  Nutsedge, Yellow plant response rating (0 to 100 scale): 75
[3]; Cyperus, post-emergence, 31 g ai/ha, postemergence, scale 0 to 100, 0 is no effect, 100 is complete control, read-out: Plant response rating, Nutsedge, Yellow
  pest or weed control at 31 g/ha: 75%
[3]; Cyperus, post-emergence, Postemergence, 250 g ai/ha, scale 0 to 100 (0 no effect, 100 complete control), read-out: Plant response rating, Nutsedge, Yellow
  pest or weed control at 250 g/ha: 80%
[4]; [18]
  Bromegrass, Downy plant response rating (0 to 100 scale): 0
[4]; Bromus tectorum, post-emergence, 31 g ai/ha, postemergence, scale 0 to 100, 0 is no effect, 100 is complete control, read-out: Plant response rating, Bromegrass, Downy
  pest or weed control at 31 g/ha: 0%
[4]; Bromus tectorum, post-emergence, Postemergence, 125 g ai/ha, visual rating after 13 to 15 days, scale 0 (no effect) to 100 (complete control)
  pest or weed control at 125 g/ha: 5%
[4]; Bromus tectorum, post-emergence, Postemergence, 250 g ai/ha, scale 0 to 100 (0 no effect, 100 complete control), read-out: Plant response rating, Bromegrass, Downy
  pest or weed control at 250 g/ha: 10%
[5]; [18]
  Crabgrass, Large plant response rating (0 to 100 scale): 80
[5]; Digitaria sanguinalis, post-emergence, 31 g ai/ha, postemergence, scale 0 to 100, 0 is no effect, 100 is complete control, read-out: Plant response rating, Crabgrass, Large
  pest or weed control at 31 g/ha: 75%
[5]; Digitaria sanguinalis, post-emergence, Postemergence, 125 g ai/ha, visual rating after 13 to 15 days, scale 0 (no effect) to 100 (complete control)
  pest or weed control at 125 g/ha: 85%
[5]; Digitaria sanguinalis, post-emergence, Postemergence, 250 g ai/ha, scale 0 to 100 (0 no effect, 100 complete control), read-out: Plant response rating, Crabgrass, Large
  pest or weed control at 250 g/ha: 95%
[6]; [18]
  Blackgrass plant response rating (0 to 100 scale): 20
[6]; Alopecurus myosuroides, post-emergence, 360 h, 31 g ai/ha, postemergence, scale 0 to 100, 0 is no effect, 100 is complete control, read-out: Plant response rating, Blackgrass
  pest or weed control at 31 g/ha: 5%
[6]; Alopecurus myosuroides, post-emergence, 360 h, Postemergence, 125 g ai/ha, visual rating after 13 to 15 days, scale 0 (no effect) to 100 (complete control)
  pest or weed control at 125 g/ha: 30%
[6]; Alopecurus myosuroides, post-emergence, 360 h, Postemergence, 250 g ai/ha, scale 0 to 100 (0 no effect, 100 complete control), read-out: Plant response rating, Blackgrass
  pest or weed control at 250 g/ha: 50%
[7]; [18]
  Morningglory plant response rating (0 to 100 scale): 100
[7]; Ipomoea, post-emergence, 31 g ai/ha, postemergence, scale 0 to 100, 0 is no effect, 100 is complete control, read-out: Plant response rating, Morningglory
  pest or weed control at 31 g/ha: 100%
[7]; Ipomoea, post-emergence, Postemergence, 250 g ai/ha, scale 0 to 100 (0 no effect, 100 complete control), read-out: Plant response rating, Morningglory
  pest or weed control at 250 g/ha: 100%
[8]; [18]
  Goosegrass plant response rating (0 to 100 scale): 70
[8]; Eleusine indica, post-emergence, 31 g ai/ha, postemergence, scale 0 to 100, 0 is no effect, 100 is complete control, read-out: Plant response rating, Goosegrass
  pest or weed control at 31 g/ha: 60%
[8]; Eleusine indica, post-emergence, Postemergence, 250 g ai/ha, scale 0 to 100 (0 no effect, 100 complete control), read-out: Plant response rating, Goosegrass
  pest or weed control at 250 g/ha: 98%
[9]; [18]
  Wheat plant response rating (0 to 100 scale): 0
[9]; Triticum aestivum, post-emergence, 31 g ai/ha, postemergence, scale 0 to 100, 0 is no effect, 100 is complete control, read-out: Plant response rating, Wheat
  plant injury at 31 g/ha: 0%
[9]; Triticum aestivum, post-emergence, Postemergence, 250 g ai/ha, scale 0 to 100 (0 no effect, 100 complete control), read-out: Plant response rating, Wheat
  plant injury at 250 g/ha: 5%
[10]; [18]
  Surinam Grass plant response rating (0 to 100 scale): 75
[10]; Urochloa decumbens, post-emergence, 31 g ai/ha, postemergence, scale 0 to 100, 0 is no effect, 100 is complete control, read-out: Plant response rating, Surinam Grass
  pest or weed control at 31 g/ha: 65%
[10]; Urochloa decumbens, post-emergence, Postemergence, 250 g ai/ha, scale 0 to 100 (0 no effect, 100 complete control), read-out: Plant response rating, Surinam Grass
  pest or weed control at 250 g/ha: 85%
[11]; [18]
  Velvetleaf plant response rating (0 to 100 scale): 100
[11]; Abutilon theophrasti, post-emergence, 360 h, 31 g ai/ha, postemergence, scale 0 to 100, 0 is no effect, 100 is complete control, read-out: Plant response rating, Velvetleaf
  pest or weed control at 31 g/ha: 100%
[11]; Abutilon theophrasti, post-emergence, 360 h, Postemergence, 250 g ai/ha, scale 0 to 100 (0 no effect, 100 complete control), read-out: Plant response rating, Velvetleaf
  pest or weed control at 250 g/ha: 100%
[12]; [18]
  Ryegrass, Italian plant response rating (0 to 100 scale): 0
[12]; Lolium multiflorum, post-emergence, 31 g ai/ha, postemergence, scale 0 to 100, 0 is no effect, 100 is complete control, read-out: Plant response rating, Ryegrass, Italian
  pest or weed control at 31 g/ha: 0%
[12]; Lolium multiflorum, post-emergence, Postemergence, 250 g ai/ha, scale 0 to 100 (0 no effect, 100 complete control), read-out: Plant response rating, Ryegrass, Italian
  pest or weed control at 250 g/ha: 5%
[13]; [18]
  Cupgrass, Woolly plant response rating (0 to 100 scale): 60
[13]; Eriochloa villosa, post-emergence, 31 g ai/ha, postemergence, scale 0 to 100, 0 is no effect, 100 is complete control, read-out: Plant response rating, Cupgrass, Woolly
  pest or weed control at 31 g/ha: 55%
[13]; Eriochloa villosa, post-emergence, Postemergence, 125 g ai/ha, visual rating after 13 to 15 days, scale 0 (no effect) to 100 (complete control)
  pest or weed control at 125 g/ha: 70%
[13]; Eriochloa villosa, post-emergence, Postemergence, 250 g ai/ha, scale 0 to 100 (0 no effect, 100 complete control), read-out: Plant response rating, Cupgrass, Woolly
  pest or weed control at 250 g/ha: 75%
